Test results published in ChEMBL document CHEMBL1649254, “A Ser29Leu substitution in the cytosine deaminase Fca1p is responsible for clade-specific flucytosine resistance in Candida dubliniensis” (2009).
Converted amounts (≈) assume the structure as drawn.

Experiments:
Assay type in all cases: functional
Candida dubliniensis [1] = assay: […] activity against 5FC- […] Candida dubliniensis isolate SA109T1 harboring plasmid pNIM1 carrying CdFCA1 gene by broth microdilution method in presence of 25 ug/ml DOX
Candida dubliniensis [2] = assay: […] activity against Candida dubliniensis harboring plasmid p7276 by broth microdilution method in presence of 30 ug/ml DOX
Candida dubliniensis [3] = assay: […] activity against Candida dubliniensis isolate SA109 by broth microdilution method
Candida dubliniensis [4] = assay: […] activity against 5FC- resistant Candida dubliniensis isolate harboring plasmid p7276T1 carrying CdFCA1 gene by broth microdilution method
Candida dubliniensis [5] = assay: […] activity against 5FC- […] Candida dubliniensis isolate SA109T1 harboring plasmid pNIM1 carrying CdFCA1 gene by broth microdilution method in presence of 30 ug/ml DOX
Candida dubliniensis [6] = assay: […] activity against 5FC- […] Candida dubliniensis isolate SA109T2 harboring plasmid pNIM1 carrying CdFCA1 gene by broth microdilution method in presence of 25 ug/ml DOX
Candida dubliniensis [7] = assay: […] activity against Candida dubliniensis isolate SA109 of Cd25 fingerprint group 3 and ITS genotype 3 by CLSI M27-A2 method
Candida dubliniensis [8] = assay: […] activity against 5FC- resistant Candida dubliniensis isolate harboring plasmid p7276T1 carrying CdFCA1 gene by broth microdilution method in presence of 25 ug/ml DOX
Candida dubliniensis [9] = assay: […] activity against 5FC- susceptible Candida dubliniensis isolate SA113T1 harboring plasmid pNIM1 carrying CdFCA1 gene by broth microdilution method in presence of 30 ug/ml DOX
Candida dubliniensis [10] = assay: […] activity against Candida dubliniensis harboring plasmid p7276 by broth microdilution method
Candida dubliniensis [11] = assay: […] activity against 5FC- resistant Candida dubliniensis isolate harboring plasmid p7276T2 carrying CdFCA1 gene by broth microdilution method in presence of 30 ug/ml DOX
Candida dubliniensis [12] = assay: […] activity against Candida dubliniensis isolate SA118 of Cd25 fingerprint group 3 and ITS genotype 3 by CLSI M27-A2 method
Candida dubliniensis [13] = assay: […] activity against Candida dubliniensis isolate harboring plasmid p7276 carrying GFP1T1 gene by broth microdilution method
Candida dubliniensis [14] = assay: […] activity against 5FC-susceptible Candida dubliniensis by NCCLS M27-A2 broth microdilution method
Candida albicans [15] = assay: […] activity against Candida albicans by EUCAST method
Candida dubliniensis [16] = assay: […] activity against Candida dubliniensis isolate SA113 by broth microdilution method in presence of 30 ug/ml DOX
Candida dubliniensis [17] = assay: […] activity against 5FC- […] Candida dubliniensis isolate SA109T2 harboring plasmid pNIM1 carrying CdFCA1 gene by broth microdilution method
Candida dubliniensis [18] = assay: […] activity against Candida dubliniensis isolate SA113 of Cd25 fingerprint group 3 and ITS genotype 4 by CLSI M27-A2 method
Candida dubliniensis [19] = assay: […] activity against 5FC- resistant Candida dubliniensis isolate harboring plasmid p7276T2 carrying CdFCA1 gene by broth microdilution method in presence of 25 ug/ml DOX
Candida albicans [20] = assay: […] activity against Candida albicans harboring Gly28Asp substitution in the cytosine deaminase gene by EUCAST method
Candida dubliniensis [21] = assay: […] activity against 5FC- susceptible Candida dubliniensis isolate SA113T1 harboring plasmid pNIM1 carrying CdFCA1 gene by broth microdilution method
Candida dubliniensis [22] = assay: […] activity against Candida dubliniensis isolate Eg206 of Cd25 fingerprint group 1 and ITS genotype 1 by CLSI M27-A2 method
Candida dubliniensis [23] = assay: […] activity against Candida dubliniensis isolate SA121 of Cd25 fingerprint group 3 and ITS genotype 4 by CLSI M27-A2 method
Candida dubliniensis [24] = assay: […] activity against Candida dubliniensis isolate SA113 by broth microdilution method
Candida dubliniensis [25] = assay: […] activity against Candida dubliniensis isolate SA107 of Cd25 fingerprint group 3 and ITS genotype 3 by CLSI M27-A2 method
Candida dubliniensis [26] = assay: […] activity against Candida dubliniensis isolate SA109 by broth microdilution method in presence of 25 ug/ml DOX
Candida dubliniensis [27] = assay: […] activity against Candida dubliniensis harboring plasmid p7276 by broth microdilution method in presence of 25 ug/ml DOX
Candida dubliniensis [28] = assay: […] activity against Candida dubliniensis isolate harboring plasmid p7276 carrying GFP1T1 gene by broth microdilution method in presence of 30 ug/ml DOX
Candida dubliniensis [29] = assay: […] activity against 5FC- resistant Candida dubliniensis isolate harboring plasmid p7276T3 carrying CdFCA1 gene by broth microdilution method in presence of 25 ug/ml DOX
Candida dubliniensis [30] = assay: […] activity against Candida dubliniensis isolate Eg201 of Cd25 fingerprint group 3 and ITS genotype 4 by CLSI M27-A2 method
Candida dubliniensis [31] = assay: […] activity against 5FC- resistant Candida dubliniensis isolate harboring plasmid p7276T2 carrying CdFCA1 gene by broth microdilution method
Candida dubliniensis [32] = assay: […] activity against 5FC- resistant Candida dubliniensis isolate harboring plasmid p7276T3 carrying CdFCA1 gene by broth microdilution method
Candida dubliniensis [33] = assay: […] activity against 5FC- […] Candida dubliniensis isolate SA109T2 harboring plasmid pNIM1 carrying CdFCA1 gene by broth microdilution method in presence of 30 ug/ml DOX
Candida dubliniensis [34] = assay: […] activity against Candida dubliniensis isolate harboring plasmid p7276 carrying GFP1T1 gene by broth microdilution method in presence of 25 ug/ml DOX
Candida dubliniensis [35] = assay: […] activity against Candida dubliniensis isolate Eg200 of Cd25 fingerprint group 3 and ITS genotype 4 by CLSI M27-A2 method
Candida dubliniensis [36] = assay: […] activity against Candida dubliniensis isolate Eg202 of Cd25 fingerprint group 3 and ITS genotype 4 by CLSI M27-A2 method
Candida dubliniensis [37] = assay: […] activity against Candida dubliniensis isolate p6785 of Cd25 fingerprint group 2 and ITS genotype 3 by CLSI M27-A2 method
Candida dubliniensis [38] = assay: […] activity against Candida dubliniensis isolate p7276 of Cd25 fingerprint group 2 and ITS genotype 3 by CLSI M27-A2 method
Candida dubliniensis [39] = assay: […] activity against 5FC- […] Candida dubliniensis isolate SA113T1 harboring plasmid pNIM1 carrying CdFCA1 gene by broth microdilution method in presence of 25 ug/ml DOX
Candida dubliniensis [40] = assay: […] activity against Candida dubliniensis isolate SA109 by broth microdilution method in presence of 30 ug/ml DOX
Candida dubliniensis [41] = assay: […] activity against Candida dubliniensis isolate SA115 of Cd25 fingerprint group 1 and ITS genotype 1 by CLSI M27-A2 method
Candida dubliniensis [42] = assay: […] activity against 5FC- […] Candida dubliniensis isolate SA109T1 harboring plasmid pNIM1 carrying CdFCA1 gene by broth microdilution method
Candida dubliniensis [43] = assay: […] activity against Candida dubliniensis isolate Eg207 of Cd25 fingerprint group 3 and ITS genotype 4 by CLSI M27-A2 method
Candida dubliniensis [44] = assay: […] activity against Candida dubliniensis isolate SA108 of Cd25 fingerprint group 3 and ITS genotype 3 by CLSI M27-A2 method
Candida dubliniensis [45] = assay: […] activity against Candida dubliniensis isolate SA105 of Cd25 fingerprint group 1 and ITS genotype 1 by CLSI M27-A2 method
Candida dubliniensis [46] = assay: […] activity against Candida dubliniensis isolate SA103 of Cd25 fingerprint group 3 and ITS genotype 3 by CLSI M27-A2 method
Candida dubliniensis [47] = assay: […] activity against 5FC- resistant Candida dubliniensis isolate harboring plasmid p7276T3 carrying CdFCA1 gene by broth microdilution method in presence of 30 ug/ml DOX
Candida albicans [48] = assay: […] activity against Candida albicans harboring Ser29Leu substitution in the cytosine deaminase gene by EUCAST method
Candida dubliniensis [49] = assay: […] activity against Candida dubliniensis isolate Eg203 of Cd25 fingerprint group 1 and ITS genotype 1 by CLSI M27-A2 method
Candida dubliniensis [50] = assay: […] activity against 5FC-resistant Candida dubliniensis by NCCLS M27-A2 broth microdilution method
Candida dubliniensis [51] = assay: […] activity against Candida dubliniensis isolate p7718 of Cd25 fingerprint group 3 and ITS genotype 4 by CLSI M27-A2 method
Candida dubliniensis [52] = assay: […] activity against Candida dubliniensis isolate SA101 of Cd25 fingerprint group 1 and ITS genotype 1 by CLSI M27-A2 method
Candida dubliniensis [53] = assay: […] activity against Candida dubliniensis isolate SA113 by broth microdilution method in presence of 25 ug/ml DOX
Candida dubliniensis [54] = assay: […] activity against Candida dubliniensis isolate SA100 of Cd25 fingerprint group 3 and ITS genotype 3 by CLSI M27-A2 method
Candida dubliniensis [55] = assay: […] activity against Candida dubliniensis isolate CD36b of Cd25 fingerprint group 1 and ITS genotype 1 by CLSI M27-A2 method
Candida dubliniensis [56] = assay: […] activity against 5FC- resistant Candida dubliniensis isolate harboring plasmid p7276T1 carrying CdFCA1 gene by broth microdilution method in presence of 30 ug/ml DOX

Nc1nc(=O)[nH]cc1F [FLUCYTOSINE]
MIC (Candida dubliniensis [1]): ≤ 0.25 µg/mL
MIC (Candida dubliniensis [2]): ≤ 0.25 µg/mL
MIC (Candida dubliniensis [3]): ≥ 128 µg/mL
MIC (Candida dubliniensis [4]): ≤ 0.25 µg/mL
MIC (Candida dubliniensis [5]): ≤ 0.25 µg/mL
MIC (Candida dubliniensis [6]): ≤ 0.25 µg/mL
MIC (Candida dubliniensis [7]): ≥ 128 µg/mL
MIC (Candida dubliniensis [8]): ≤ 0.25 µg/mL
MIC (Candida dubliniensis [9]): ≤ 0.25 µg/mL
MIC (Candida dubliniensis [10]): ≤ 0.25 µg/mL
MIC (Candida dubliniensis [11]): ≤ 0.25 µg/mL
MIC (Candida dubliniensis [12]): ≥ 128 µg/mL
MIC (Candida dubliniensis [13]): ≤ 0.25 µg/mL
MIC (Candida dubliniensis [14]): ≤ 0.125 µg/mL
MIC (Candida albicans [15]): ≥ 0.06 µg/mL
MIC (Candida dubliniensis [16]): ≥ 128 µg/mL
MIC (Candida dubliniensis [17]): ≥ 128 µg/mL
MIC (Candida dubliniensis [18]): ≥ 128 µg/mL
MIC (Candida dubliniensis [19]): ≤ 0.25 µg/mL
MIC (Candida albicans [20]): > 64 µg/mL
MIC (Candida dubliniensis [21]): ≥ 128 µg/mL
MIC (Candida dubliniensis [22]): ≤ 0.25 µg/mL
MIC (Candida dubliniensis [23]): ≥ 128 µg/mL
MIC (Candida dubliniensis [24]): ≥ 128 µg/mL
MIC (Candida dubliniensis [25]): ≥ 128 µg/mL
MIC (Candida dubliniensis [26]): ≥ 128 µg/mL
MIC (Candida dubliniensis [27]): ≤ 0.25 µg/mL
MIC (Candida dubliniensis [28]): ≤ 0.25 µg/mL
MIC (Candida dubliniensis [29]): ≤ 0.25 µg/mL
MIC (Candida dubliniensis [30]): ≥ 128 µg/mL
MIC (Candida dubliniensis [31]): ≤ 0.25 µg/mL
MIC (Candida dubliniensis [32]): ≤ 0.25 µg/mL
MIC (Candida dubliniensis [33]): ≤ 0.25 µg/mL
MIC (Candida dubliniensis [34]): ≤ 0.25 µg/mL
MIC (Candida dubliniensis [35]): ≥ 128 µg/mL
MIC (Candida dubliniensis [36]): ≥ 128 µg/mL
MIC (Candida dubliniensis [37]): ≤ 0.25 µg/mL
MIC (Candida dubliniensis [38]): ≤ 0.25 µg/mL
MIC (Candida dubliniensis [39]): ≤ 0.25 µg/mL
MIC (Candida dubliniensis [40]): ≥ 128 µg/mL
MIC (Candida dubliniensis [41]): ≤ 0.25 µg/mL
MIC (Candida dubliniensis [42]): ≥ 128 µg/mL
MIC (Candida dubliniensis [43]): ≥ 128 µg/mL
MIC (Candida dubliniensis [44]): ≥ 128 µg/mL
MIC (Candida dubliniensis [45]): ≤ 0.25 µg/mL
MIC (Candida dubliniensis [46]): ≥ 128 µg/mL
MIC (Candida dubliniensis [47]): ≤ 0.25 µg/mL
MIC (Candida albicans [48]): 4 µg/mL (≈ 31 µM)
MIC (Candida dubliniensis [49]): ≤ 0.25 µg/mL
MIC (Candida dubliniensis [50]): ≥ 128 µg/mL
MIC (Candida dubliniensis [51]): ≤ 0.25 µg/mL
MIC (Candida dubliniensis [52]): ≤ 0.25 µg/mL
MIC (Candida dubliniensis [53]): ≥ 128 µg/mL
MIC (Candida dubliniensis [54]): ≥ 128 µg/mL
MIC (Candida dubliniensis [55]): ≤ 0.25 µg/mL
MIC (Candida dubliniensis [56]): ≤ 0.25 µg/mL

O=c1[nH]cc(F)c(=O)[nH]1 [FLUOROURACIL]
MIC (Candida dubliniensis [7]): 8 µg/mL (≈ 61.5 µM)
MIC (Candida dubliniensis [12]): 32 µg/mL (≈ 246 µM)
MIC (Candida dubliniensis [18]): 32 µg/mL (≈ 246 µM)
MIC (Candida dubliniensis [22]): 32 µg/mL (≈ 246 µM)
MIC (Candida dubliniensis [23]): 32 µg/mL (≈ 246 µM)
MIC (Candida dubliniensis [25]): 32 µg/mL (≈ 246 µM)
MIC (Candida dubliniensis [30]): 32 µg/mL (≈ 246 µM)
MIC (Candida dubliniensis [35]): 8 µg/mL (≈ 61.5 µM)
MIC (Candida dubliniensis [36]): 32 µg/mL (≈ 246 µM)
MIC (Candida dubliniensis [37]): 16 µg/mL (≈ 123 µM)
MIC (Candida dubliniensis [38]): 8 µg/mL (≈ 61.5 µM)
MIC (Candida dubliniensis [41]): 32 µg/mL (≈ 246 µM)
MIC (Candida dubliniensis [43]): 32 µg/mL (≈ 246 µM)
MIC (Candida dubliniensis [44]): 32 µg/mL (≈ 246 µM)
MIC (Candida dubliniensis [45]): 32 µg/mL (≈ 246 µM)
MIC (Candida dubliniensis [46]): 32 µg/mL (≈ 246 µM)
MIC (Candida dubliniensis [49]): 16 µg/mL (≈ 123 µM)
MIC (Candida dubliniensis [51]): 16 µg/mL (≈ 123 µM)
MIC (Candida dubliniensis [52]): 16 µg/mL (≈ 123 µM)
MIC (Candida dubliniensis [54]): 32 µg/mL (≈ 246 µM)
MIC (Candida dubliniensis [55]): 32 µg/mL (≈ 246 µM)
